The test deals with hiRPCp2. The experiment in a line: Differentiation ability of hiRPCp2 expanded in K+ medium (qRT-PCR of CRX and BRN3A). It counts as cell-based, human. As to conditions: Diff-2, late forced differentiation in ProB27 medium supplemented by DAPT, D10, qRT-PCR of CRX. Here is the method:
Total RNAs were extracted using Nucleospin RNA II kit (Macherey-Nagel) according to the manufacturer's protocol, and RNA yields and quality were checked with a NanoDrop spectrophotometer (Thermo Fisher Scientific). cDNA were synthesized from 250 ng of mRNA using the QuantiTect reverse transcription kit (Qiagen) following manufacturer's recommendations. Synthesized cDNA were then diluted at 1/20 in DNase-free water before performing quantitative PCR. qPCR analysis was performed on an Applied Biosystems real-time PCR machine (7500 Fast System) with custom TaqMan® Array 96-Well Fast plates and TaqMan® Gene expression Master Mix (Thermo Fisher Scientific) following manufacturer's instructions. All primers and MGB probes labeled with FAM for amplification were purchased from Thermo Fischer Scientific as described in Reichman et al., 2017 [2], ASCL1 (Assay ID Hs04187546_g1). Results were normalized against 18S and quantification of gene expression was based on the DeltaCt Method.
We tested the ability of the hiRPCs expanded after two passages (hiRPCp2) in K+ medium to be differentiated in retinal neurons. Three different culture conditions were tested: 1—By a spontaneous differentiation in ProB27 medium, a control condition. 2—By an “early forced” differentiation using ProB27 medium supplemented by DAPT, a Notch pathway inhibitor, directly after K+ medium condition at D3 (Diff 1). […]

This note sets out measurements from US20260132374A1, “Compositions and Methods for Efficient Amplification of Retinal Progenitors Cells” (SORBONNE UNIVERSITE, priority 2018, published 2026).

As for `C[C@H](NC(=O)Cc1cc(F)cc(F)c1)C(=O)N[C@H](C(=O)OC(C)(C)C)c1ccccc1` [DAPT], the “differentiation of hiRPCp2” value is recorded as “favors the hiRPCs differentiation in photoreceptor precursors”.
